Drawing on patent US5620997A, “Isothiazolones” (Warner-Lambert Company, priority 1995, dated 1997), this text covers inhibition for three compounds.

The target in this experiment is T1, rabbit reticulocyte 15-LO (Oryctolagus cuniculus, UniProt P12530).
T1 construct: rabbit reticulocyte 15-LO; from tissue; host or cells: rabbit reticulocytes
T1 sequence (P12530 1-663): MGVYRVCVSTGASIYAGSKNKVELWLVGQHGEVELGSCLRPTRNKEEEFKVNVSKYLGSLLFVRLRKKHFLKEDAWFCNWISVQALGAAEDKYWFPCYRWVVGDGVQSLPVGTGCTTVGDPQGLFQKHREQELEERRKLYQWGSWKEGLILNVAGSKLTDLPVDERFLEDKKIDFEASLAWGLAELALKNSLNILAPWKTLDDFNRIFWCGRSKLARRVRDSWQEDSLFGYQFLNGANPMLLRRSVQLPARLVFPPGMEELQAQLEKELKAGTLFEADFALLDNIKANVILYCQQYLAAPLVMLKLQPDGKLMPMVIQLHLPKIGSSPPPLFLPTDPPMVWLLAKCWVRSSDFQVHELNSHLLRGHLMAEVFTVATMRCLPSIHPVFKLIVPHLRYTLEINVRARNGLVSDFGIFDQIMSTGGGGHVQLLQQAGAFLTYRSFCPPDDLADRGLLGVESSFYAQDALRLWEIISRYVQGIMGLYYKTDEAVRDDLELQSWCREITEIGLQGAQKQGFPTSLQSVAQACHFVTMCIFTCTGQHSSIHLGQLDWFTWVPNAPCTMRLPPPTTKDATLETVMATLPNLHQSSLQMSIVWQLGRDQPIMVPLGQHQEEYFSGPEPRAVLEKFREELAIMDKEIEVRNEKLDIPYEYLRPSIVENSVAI
Description: Colorimetric Assay of 15-LO Inhibition. It counts as biochemical. The note with it: colorimetric method. The protocol: The isothiazolones of Formula I are also effective for treating inflammation and atherosclerosis. A characteristic feature of atherosclerosis is the accumulation of cholesteryl ester engorged from foam cells. Foam cells are derived from circulating monocytes which invade artery walls in response to hypercholesterolemia, and mature into tissue macrophages. […] Specifically, representative compounds were evaluated by the methods described by Auerbach, et al., Analytical Biochemistry, 1992;201:375-380. Two in vitro assays were utilized, both utilizing rabbit reticulocyte 15-LO, and linoleic acid as substrate, to enzymatically produce a peroxide oxidation product known as 13(S)-HPODE. N-Benzoyl leucomethylene blue was utilized as a colorimetric reagent for detection and quantification of the peroxide formation. Also, HPLC was utilized to quantify the oxidation following incubation at 4° C. for 10 minutes.
Table 3 gives the concentration of compound required to inhibit 50% of the activity of 15-LO (IC50) when measured by the HPLC method of Auerbach, et al. Table 4 gives the percent inhibition of 15-LO activity when evaluated by the colorimetric method.

On to `CC(=O)NS(=O)(=O)c1ccc(-n2sc3ccccc3c2=O)cc1` [Example 3, N-Acetyl-4-(3-oxo-3h-benzo[d]isothiazol-2-yl)-benzenesulfonamide], for which the inhibition (usually the percentage by which the read-out fell short of the control) at 10 µM stood at 75%. In turn, `CCN(CC)CCn1sc2nc(-c3ccccc3)ncc2c1=O` [Example 21, 2-[2-(Diethylamino)ethyl]-6-phenyl-isothiazolo[5,4-d] pyrimidin-3(2H)-one] registered an inhibition at 10 µM of 95%.

In the case of `CN(C)CCn1sc2nc3ccccc3cc2c1=O` [Example 109], the inhibition at 10 µM came to 22%.
